# Experimental data taken from publication PMC12281142, “A potent phenylalkylamine disrupts mycobacterial membrane bioenergetics and augments bactericidal activity of bedaquiline” (iScience, 2025).
# Like-named read-outs stand apart in the source and are kept apart here.
# Test system: M. bovis BCG
# Experiment: microbe, parasite or virus in culture
# Format: cell-based, Mycobacterium bovis BCG
molecule,measurement,setting,value
COc1ccc(CCN(C)CCCC(C#N)(CC2CCCCC2)c2ccc(Cl)cc2)cc1OC (stereo not shown) [PhA15],MIC50,,21 µM
same,MIC90,,37 µM
same,MIC90 (Table S1),,37 µM
COc1ccc(C(C#N)(CC=C(C)CCC=C(C)C)CCCN2CCN(C(c3ccccc3)c3ccccc3)CC2)cc1OC (stereo not shown) [PhA16],MIC50,,29 µM
same,MIC90,,46 µM
same,MIC90 (Table S1),,46 µM
COc1ccc(C(C#N)(CCCn2c(C)nc3ccccc32)C(C)C)cc1OC (stereo not shown) [PhA17],MIC90 (Table S1),,> 250 µM
COc1ccc(C(C#N)(CCCn2c(N)nc3ccccc32)C(C)C)cc1OC (stereo not shown) [PhA18],MIC90 (Table S1),,155 µM
COc1ccc(C(C#N)(CCCN2CCN(c3ccccc3Cl)CC2)C(C)C)cc1OC (stereo not shown) [PhA19],MIC90 (Table S1),,73 µM
COc1ccc(C(C#N)(CCCN2CCN(c3ccccc3OC)CC2)C(C)C)cc1OC (stereo not shown) [PhA20],MIC90 (Table S1),,163 µM
COc1ccc(C(C#N)(CCCN2CCN(c3cccc(O)c3)CC2)C(C)C)cc1OC (stereo not shown) [PhA21],MIC90 (Table S1),,> 250 µM
"COc1ccc(CCN(C)CCCC(C#N)(c2cc(OC)c(OC)c(OC)c2)C(C)C)cc1OC (stereo not shown) [PhA52, gallopamil, reference compound]",MIC90 (Table S1),"M. bovis BCG, broth dilution",> 250 µM
"COc1cccc(CCN(C)CCCC(C#N)(c2ccc(OC)c(OC)c2)C(C)C)c1 (stereo not shown) [PhA57, devapamil, reference compound]",MIC90,"Mycobacterium tuberculosis variant bovis BCG, BCG, read-out: MIC90 (Table S1), M. bovis BCG, broth dilution",180 µM
CC(C)C(C#N)(CCCN(C)CCc1ccc(Cl)c(Cl)c1)c1ccc(Cl)c(Cl)c1 (stereo not shown) [PhA66],MIC50,,56 µM
"carbonyl cyanide m-chlorophenyl hydrazine [CCCP, reference compound]",MIC90,,50 µM
same,MIC90 BCG,,10 µg/mL
